Test results taken from ChEMBL document CHEMBL1142424, “Octanorcucurbitane and cucurbitane triterpenoids from the tubers of Hemsleya endecaphylla with HIV-1 inhibitory activity” (J Nat Prod, 2008).
In brackets after ≈: the same amount, converted by molar mass.

What was measured:
[1] = Cytotoxicity against human C8166 cells by MTT method; format: cell-based
[2] = tested on: Human immunodeficiency virus 1; assay: Antiviral activity against HIV1 in C8166 cells after 72 hrs; format: functional, organism-based; conditions: Human immunodeficiency virus 1, C8166, 72 h
[3] = Selectivity index, ratio of CC50 for human C8166 cells to EC50 for HIV1; format: functional

| Compound | CC50 [1] [µg/mL] | EC50 [2] [µg/mL] | Ratio CC50/EC50 [3] |
| --- | --- | --- | --- |
| CC(C)(O)/C=C/C[C@@](C)(O)[C@H]1[C@H](O)C[C@@]2(C)[C@@H]3CC=C4[C@@H](C[C@H](O)C(=O)C4(C)C)[C@]3(C)C(=O)C[C@]12C | 121 (≈ 241 µM) | 15.8 (≈ 31.4 µM) | 7.7 |
| CC(=O)OC(C)(C)CCC(=O)[C@](C)(O)[C@H]1[C@H](O)C[C@@]2(C)[C@@H]3CC=C4[C@@H](C=C(O)C(=O)C4(C)C)[C@]3(C)C(=O)C[C@]12C | 21.6 (≈ 38.7 µM) | 2.4 (≈ 4.3 µM) | 9.2 |
| CC(C)(O)CCC(=O)[C@@](C)(O)[C@H]1[C@H](O)C[C@@]2(C)[C@@H]3CC=C4[C@@H](C[C@H](O)C(=O)C4(C)C)[C@]3(C)C(=O)C[C@]12C | 6.5 (≈ 12.5 µM) | 0.13 (≈ 0.251 µM) | 50 |
| CC(=O)OC(C)(C)CCC(=O)[C@](C)(O)[C@H]1[C@H](O)C[C@@]2(C)[C@@H]3CC=C4[C@@H](C[C@H](O)C(=O)C4(C)C)[C@]3(C)C(=O)C[C@]12C [23,24-DIHYDROCUCURBITACIN B] | 25.5 (≈ 45.5 µM) | 4.2 (≈ 7.49 µM) | 6.1 |
| CC(=O)OC(C)(C)/C=C/C(=O)[C@](C)(O)[C@H]1[C@H](O)C[C@@]2(C)[C@@H]3CC=C4[C@@H](C[C@H](O)C(=O)C4(C)C)[C@]3(C)C(=O)C[C@]12C [CUCURBITACIN B] | 1.5 (≈ 2.68 µM) | – | – |
| CC(=O)OC(C)(C)/C=C/C(=O)[C@](C)(O)[C@H]1[C@H](O)C[C@@]2(C)[C@@H]3CC=C4[C@H](C[C@H](O)C(=O)C4(C)C)[C@]3(C)C(=O)C[C@]12C [CUCURBITACIN B] | – | 0.09 (≈ 0.161 µM) | 16.7 |
| CC(C)(O)/C=C/C(=O)[C@](C)(O)[C@H]1[C@H](O)C[C@@]2(C)[C@@H]3CC=C4[C@@H](C=C(O)C(=O)C4(C)C)[C@]3(C)C(=O)C[C@]12C [CUCURBITACIN I] | 14.4 (≈ 28 µM) | 0.7 (≈ 1.36 µM) | 20.6 |
| CC1(C)C(=O)[C@@H](O)C[C@@H]2C1=CC[C@@H]1[C@@]2(C)C(=O)C[C@]2(C)CC(=O)C[C@@]12C [ENDECAPHYLLACIN A] | > 200 | 31.6 (≈ 88.2 µM) | >6.3 |
| CC1(C)C(=O)C(O)=C[C@@H]2C1=CC[C@@H]1[C@@]2(C)C(=O)C[C@]2(C)CC(=O)C[C@@]12C [ENDECAPHYLLACIN B] | 62 (≈ 174 µM) | 12 (≈ 33.7 µM) | 5 |
| Cc1cn([C@H]2C[C@H](N=[N+]=[N-])[C@@H](CO)O2)c(=O)[nH]c1=O [ZIDOVUDINE] | > 200 | 0.0034 (≈ 0.0127 µM) | >50000 |
